Experimental data from publication PMC9182378, “Bicyclic Isoxazoline Derivatives: Synthesis and Evaluation of Biological Activity” (Molecules, 2022).

Key:
A-549 = assay: MTT assay cytotoxicity; format: cell-based; conditions: Homo sapiens, A549, A-549 (lung cancer), 72 h
MCF-7 = assay: MTT assay cytotoxicity; format: cell-based; conditions: Homo sapiens, MCF7, MCF-7 (breast cancer), 72 h
HCT-116 = assay: MTT assay cytotoxicity; format: cell-based; conditions: Homo sapiens, HCT-116 (colon cancer), 72 h
[1] = test system: cancer or normal cell lines; assay: MTT assay cytotoxicity, summary over the cell line panel; conditions: for IC50: read-out: IC50 against cancer cell lines (range over compounds and lines); for toxicity against cancer or normal cell lines: either cancer or normal cell lines
Hek293t = assay: MTT assay cytotoxicity; format: cell-based; conditions: Homo sapiens, HEK-293T, Hek293t (embryonic kidney, normal), 72 h
WI38 = assay: MTT assay cytotoxicity; format: cell-based; conditions: Homo sapiens, WI-38, WI38 (fibroblasts, normal), 72 h
[2] = test system: Rimantadine-resistant M2 proton channel; set-up: method as in PMID 27187859; conditions: cited from earlier work
in vitro = conditions: dog
C. albicans [3] = assay: Minimum inhibitory concentration (CLSI); format: cell-based, Candida albicans
A. niger [4] = assay: Minimum inhibitory concentration (CLSI); format: cell-based, Aspergillus niger
C. albicans [5] = assay: Agar-diffusion assay (zone of inhibition); conditions: Candida albicans, CBS8836, 24 h
Procedure: (§1) Initial screening of antimicrobial activity was performed by using agar-diffusion assay against a number of microorganisms: fungi (Aspergillus niger INA 00760), yeast (Candida albicans CBS 8836), gram-positive bacteria (Bacillus subtilis ATCC 6633, Staphylococcus aureus ATCC 25923) and gram-negative bacteria (Escherichia coli ATCC 25922). For the bacterial strains, the agar-diffusion method on the Mueller–Hinton medium was performed using direct colony suspension, equivalent to a 0.5 McFarland standard as inoculate. For the fungal test-strains, the Sabouraud medium was used with 0.2% glucose, inoculated with direct colony suspension (10^6 CFU/100 mL). The tested compounds were applied on Petri dishes on sterile paper disks (6 mm); 100 µg/disk inhibition zones were measured after 24 h incubation at 37 °C. As a positive control, standard antibiotic disks containing 30 µg vancomycin (for B. subtilis), 10 µg gentamicin (for E. coli), and 40 µg fluconazole (for A. niger and C. albicans) were used.

E. coli = assay: Minimum inhibitory concentration (CLSI); format: cell-based, Escherichia coli
A. niger [6] = assay: Agar-diffusion assay (zone of inhibition); conditions: Aspergillus niger, 24 h
Procedure: as §1

B. subtilis [7] = assay: Minimum inhibitory concentration (CLSI); format: cell-based, Bacillus subtilis
St. aureus [8] = assay: Minimum inhibitory concentration (CLSI); format: cell-based, Staphylococcus aureus; conditions: ATCC 29213 strain used for MIC
Procedure: Minimum inhibitory concentrations (MIC) were determined for the selected active strains according to the Performance Standards for Antimicrobial Susceptibility Testing (CLSI). The Staphylococcus aureus ATCC 29213 strain was used for MIC measurements. Amphotericin B, clotrimazole, vancomycin and ampicillin were used as positive control.

B. subtilis [9] = assay: Agar-diffusion assay (zone of inhibition); conditions: Bacillus subtilis, ATCC6633, 24 h
Procedure: as §1

St. aureus [10] = assay: Agar-diffusion assay (zone of inhibition); conditions: Staphylococcus aureus, ATCC25923, 24 h
Procedure: as §1

SMILES | IC50 (A-549) [µM] | IC50 (MCF-7) [µM] | IC50 (HCT-116) [µM] | melting point | IC50 (WI38) [µM] | also measured
CC(=O)Nc1ccc(S(=O)(=O)NC2=NOC3(CCCCCCC3)C2)cc1 [Compound 5g, N-(4-(N-1-Oxa-2-azaspiro[4.7]dodec-2-en-3-ylsulfamoyl)phenyl)acetamide] | 54 ± 14 | 54.5 ± 15 | 41.3 ± 17 | 171 to 173 °C (dec.) | – | IC50 [1]: 17.7 to 58.8 µM; IC50 (Hek293t): 30.4 ± 14.5 µM
O=S(=O)(NC1=NOC2(CCCCCCC2)C1)c1cccs1 [Compound 5k, N -(1-Oxa-2-azaspiro[4.7]dodec-2-en-3-yl)thiophene-2-sulfonamide] | 111 ± 20 | > 150 | 131 ± 80 | 149 to 151 °C | – | IC50 (Hek293t): 65.5 ± 13.5 µM
O=S(=O)(Cc1ccccc1)NC1=NOC2(CCCCCCC2)C1 [Compound 5b, N-(1-Oxa-2-azaspiro[4.7]dodec-2-en-3-yl)-1-phenylmethanesulfonamide] | – | 138 ± 25 | > 200 | 68 to 70 °C | > 500 | –
CC1CCC2(CC1)SC(N)=NC2(C)C (stereo not drawn) [A, spirothiazamenthane] | – | – | – | – | – | activity against the Rimantadine-resistant M2 proton channel [2]: inactive
NC1=NOC2CCCCCCC12 (stereo not drawn) [Compound 4, 3a,4,5,6,7,8,9,9a-Octahydrocycloocta[d]isoxazol-3-amine] | > 150 | > 150 | > 500 | – | > 150 | CC50 (in vitro): > 1790 µM; toxicity against cancer or normal cell lines [1]: not toxic
O=[N+]([O-])c1ccccc1S(=O)(=O)NC1=NOC2(CCCCCCC2)C1 [Compound 5i, 2-Nitro-N-(1-oxa-2-azaspiro[4.7]dodec-2-en-3-yl)benzenesulfonamide] | – | – | – | 164 to 165 °C | – | –
O=S(=O)(NC1=NOC2(CCCCCCC2)C1)c1ccc(F)cc1F [Compound 5h, 2,4-Difluoro-N-(1-oxa-2-azaspiro[4.7]dodec-2-en-3-yl)benzenesulfonamide] | 77.1 ± 10.2 | 94.7 ± 15.5 | 97.1 ± 34 | 118 to 119 °C | – | IC50 (Hek293t): 60 ± 17 µM
CC(N)C12CC3CC(CC(C3)C1)C2 (stereo not drawn) [Rimantadine, reference compound] | – | – | – | – | – | CC50 (in vitro): 406 ± 26 µM
Cc1ccc(S(=O)(=O)NC2=NOC3(CCCCCCC3)C2)cc1 [Compound 5d, 4-Methyl-N-(1-oxa-2-azaspiro[4.7]dodec-2-en-3-yl)benzenesulfonamide] | 143 ± 50 | 94 ± 30 | – | 122 to 124 °C | 54.6 ± 7 | –
C[C@@H]1[C@H](O)[C@@H](C)/C=C/C=C/C=C/C=C/C=C/C=C/C=C/[C@H](O[C@@H]2O[C@H](C)[C@@H](O)[C@H](N)[C@@H]2O)C[C@@H]2O[C@](O)(C[C@@H](O)C[C@@H](O)[C@H](O)CC[C@@H](O)C[C@@H](O)CC(=O)O[C@H]1C)C[C@H](O)[C@H]2C(=O)O [Amphotericin B, reference compound] | – | – | – | – | – | MIK (C. albicans [3]): 2 µg/mL; MIK (A. niger [4]): 0.04 to 1.5 µg/mL
O=[N+]([O-])C1=NOC2CCCCCCC12 (stereo not drawn) [Compound 2, 3-Nitro-3a,4,5,6,7,8,9,9a-octahydrocycloocta[d]isoxazole] | 40.4 ± 2.5 | 35.4 ± 4.5 | 17.7 ± 5 | 52 to 53 °C | 27.4 ± 4 | MIK (C. albicans [3]): 32 µg/mL; zone of inhibition at 100 µg/disc (C. albicans [5]): 19 mm; MIK (E. coli): > 256 µg/mL; MIK (A. niger [4]): 16 µg/mL; zone of inhibition at 100 µg/disc (A. niger [6]): 15 mm; MIK (B. subtilis [7]): 32 µg/mL; MIK (St. aureus [8]): 8 to 16 µg/mL; IC50 [1]: 17.7 to 58.8 µM; zone of inhibition at 100 µg/disc (B. subtilis [9]): 16 mm; zone of inhibition at 100 µg/disc (St. aureus [10]): 25 mm
O=S(=O)(NC1=NOC2(CCCCCCC2)C1)c1cccnc1 [Compound 5l, N -(1-Oxa-2-azaspiro[4.7]dodec-2-en-3-yl)pyridine-3-sulfonamide] | > 150 | > 150 | 133 ± 68 | 145 to 146 °C | – | IC50 (Hek293t): > 500 µM
O=[N+]([O-])C1=NOC2(CCCCCCC2)C1 [Compound 1, 3-Nitro-1-oxa-2-azaspiro[4.7]dodec-2-ene] | 57.1 ± 7 | 58.8 ± 5 | 20.8 ± 5 | 55 to 57 °C | 42.2 ± 13 | MIK (C. albicans [3]): 8 µg/mL; zone of inhibition at 100 µg/disc (C. albicans [5]): 24 mm; MIK (E. coli): > 256 µg/mL; MIK (A. niger [4]): 8 µg/mL; zone of inhibition at 100 µg/disc (A. niger [6]): 15 mm; MIK (B. subtilis [7]): 32 µg/mL; MIK (St. aureus [8]): 32 µg/mL; IC50 [1]: 17.7 to 58.8 µM; zone of inhibition at 100 µg/disc (B. subtilis [9]): 12 mm; zone of inhibition at 100 µg/disc (St. aureus [10]): 15 mm
Cc1cc(C)c(S(=O)(=O)NC2=NOC3(CCCCCCC3)C2)c(C)c1 [Compound 5e, 2,4,6-Trimethyl-N-(1-oxa-2-azaspiro[4.7]dodec-2-en-3-yl)benzenesulfonamide] | 61 ± 21 | 79 ± 36 | 70.1 ± 11.2 | 135 to 136 °C | 95.5 ± 14.3 | –
CS(=O)(=O)NC1=NOC2(CCCCCCC2)C1 [Compound 5a, N-(1-Oxa-2-azaspiro[4.7]dodec-2-en-3-yl)methanesulfonamide] | – | – | – | 110 to 111 °C | – | –
CC1(C)S[C@@H]2[C@H](NC(=O)[C@H](N)c3ccccc3)C(=O)N2[C@H]1C(=O)O [Ampicillin, reference compound] | – | – | – | – | – | MIK (E. coli): 2 to 8 µg/mL
NC1=NOC2(CCCCCCC2)C1 [Compound 3, 1-Oxa-2-azaspiro[4.7]dodec-2-en-3-amine] | > 150 | > 150 | > 500 | – | > 150 | CC50 (in vitro): > 550 µM; toxicity against cancer or normal cell lines [1]: not toxic
Clc1ccccc1C(c1ccccc1)(c1ccccc1)n1ccnc1 [Clotrimazole, reference compound] | – | – | – | – | – | MIK (C. albicans [3]): 4 µg/mL
O=S(=O)(NC1=NOC2(CCCCCCC2)C1)c1ccc2c(c1)OCCO2 [Compound 5f, N-(1-Oxa-2-azaspiro[4.7]dodec-2-en-3-yl)-2,3-dihydrobenzo[b][1,4]dioxine-6-sulfonamide] | 119 | 64.1 ± 8 | 23.6 ± 4.5 | 192 to 194 °C | 42 ± 8.6 | –
CN[C@H](CC(C)C)C(=O)N[C@H]1C(=O)N[C@@H](CC(N)=O)C(=O)N[C@H]2C(=O)N[C@H]3C(=O)N[C@H](C(=O)N[C@H](C(=O)O)c4cc(O)cc(O)c4-c4cc3ccc4O)[C@H](O)c3ccc(c(Cl)c3)Oc3cc2cc(c3O[C@@H]2O[C@H](CO)[C@@H](O)[C@H](O)[C@H]2O[C@H]2C[C@](C)(N)[C@H](O)[C@H](C)O2)Oc2ccc(cc2Cl)[C@H]1O [Vancomycin, reference compound] | – | – | – | – | – | MIK (B. subtilis [7]): 0.25 to 1 µg/mL; MIK (St. aureus [8]): 0.5 to 2 µg/mL
O=S(=O)(NC1=NOC2(CCCCCCC2)C1)c1ccc2ccccc2c1 [Compound 5j, N-(1-Oxa-2-azaspiro[4.7]dodec-2-en-3-yl)naphthalene-2-sulfonamide] | 27.5 ± 4.2 | 26.8 ± 3.5 | 19 ± 3 | 143 to 145 °C | – | IC50 [1]: 17.7 to 58.8 µM; IC50 (Hek293t): 23.1 ± 6.5 µM
O=S(=O)(NC1=NOC2(CCCCCCC2)C1)c1ccccc1 [Compound 5c, N-(1-Oxa-2-azaspiro[4.7]dodec-2-en-3-yl)benzenesulfonamide] | 163 | 116 ± 30 | 63 ± 18 | 156 to 157 °C | 113 | –
